# What was measured:
# [1] = molecular target: T1, cytochrome P450 3A4 (CYP3A4) (Homo sapiens, UniProt P08684, F219A); assay: equilibrium spectral titration, Hill fit (S50; nH […]); assay type: binding
# T1 construct: Δ3-22 CYP3A4
# [2] = molecular target: T2, cytochrome P450 3A4 (CYP3A4) (Homo sapiens, UniProt P08684); assay: as above; assay type: binding
# T2 construct: Δ3-22 CYP3A4
# T2 sequence (P08684 23-503): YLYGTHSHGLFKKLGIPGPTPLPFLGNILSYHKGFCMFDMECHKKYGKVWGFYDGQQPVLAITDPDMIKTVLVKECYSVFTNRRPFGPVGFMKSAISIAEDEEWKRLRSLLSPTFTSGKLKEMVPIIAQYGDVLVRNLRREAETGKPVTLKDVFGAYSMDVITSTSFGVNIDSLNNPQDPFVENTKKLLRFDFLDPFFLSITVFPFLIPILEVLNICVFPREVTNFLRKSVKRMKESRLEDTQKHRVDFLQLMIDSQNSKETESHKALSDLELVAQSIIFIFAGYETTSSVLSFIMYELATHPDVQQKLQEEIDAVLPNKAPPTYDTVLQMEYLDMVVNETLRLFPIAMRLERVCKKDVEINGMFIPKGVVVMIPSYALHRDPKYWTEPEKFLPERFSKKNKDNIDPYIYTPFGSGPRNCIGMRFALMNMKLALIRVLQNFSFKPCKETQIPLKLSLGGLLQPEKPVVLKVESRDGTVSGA
# T1 sequence (P08684 23-503 F219A): as the sequence (P08684 23-503) above, with F197A counted along it
structure (smiles),measurement,setting,value
"CC(=O)[C@H]1CC[C@H]2[C@@H]3CCC4=CC(=O)CC[C@]4(C)[C@H]3CC[C@]12C [PRG, progesterone]",Kd,[1],158 ± 9 µM
same,Kd,[2],103 ± 3 µM

# — article PMC10470200 (The Journal of Biological Chemistry, 2023)
